{
  "source": "patent US11464771B2",
  "about": "“Bromodomain and extra-terminal protein inhibitor combination therapy” (CELGENE QUANTICEL RESEARCH, INC., priority 2016, dated 2022)",
  "assay": "GLP 4-week oral toxicity study in Beagle dogs",
  "assay_type": "in vivo",
  "protocol": "Compound A was evaluated in non-GLP exploratory toxicology and genetic toxicology studies, and in GLP repeat-dose (≤4-week nonclinical toxicology) studies. GLP 4-week oral toxicity studies (with a 4-week recovery period) were conducted in rats (0, 5, 10, or 20 mg base/kg/dose for females, and 0, 15, 30, or 60 mg base/kg/dose for males), and Beagle dogs (0, 1.75, 3.75, or 7.5 mg base/kg/dose). The dosing schedule was once daily administration for 3 consecutive days followed by 4 consecutive days off drug each week for a total of 4 weeks.\nIn the 4-week Beagle dog study, the severely toxic dose was 7.50 mg base/kg/dose. […] There were no Compound A-related mortalities at doses below 7.50 mg base/kg/dose, but there were Compound A-related findings at all doses evaluated.\nThese values apply to the 3-days-on/4-days-off dose schedule.",
  "key": {"[1]": {"details": "both, Beagle, dog, in vivo, 4 weeks"}},
  "data": [
    {"molecule": "Cn1cc(-c2cc(S(C)(=O)=O)ccc2OCC2CC2)c2ccccc2c1=O", "note": "[Compound A, 4-[2-(cyclopropylmethoxy)-5-methylsulfonylphenyl]-2-methylisoquinolin-1-one]", "values": [
      {"measurement": "mean exposure corresponding to the dog HNSTD", "setting": "Beagle, dog, in vivo", "value": 10000, "unit": "ng·h/mL"},
      {"measurement": "accumulation after repeat dosing", "setting": "Beagle, dog, in vivo, 4 weeks", "value": "up to 3 fold"},
      {"measurement": "Dog HNSTD", "setting": "Table 3", "value": 3.75, "unit": "mg base/kg"},
      {"measurement": "HED", "setting": "[1]", "value": 2.1, "unit": "mg base/kg"},
      {"measurement": "HED/Safety Factor", "setting": "[1]", "value": 21, "unit": "mg base"},
      {"measurement": "severely toxic dose", "setting": "[1]", "value": 7.50, "unit": "mg base/kg/dose"},
      {"measurement": "NOAEL", "setting": "dogs", "value": "no NOAEL was identified"},
      {"measurement": "highest non-severely toxic dose (HNSTD)", "setting": "dogs, 3 days on/4 days off", "value": 3.75, "unit": "mg base/kg/dose"}
    ]}
  ]
}
